Results taken from the NIST ThermoML archive (doi:10.1021/je900355h).
Numbers after ± are expanded uncertainties.

Settings: Crystal; visual observation

## F[P-](F)(F)(F)(F)F.F[P-](F)(F)(F)(F)F.c1cc[n+](CCCCC[n+]2ccccc2)cc1 [1,1'-(1,5-pentanediyl)bis-pyridinium hexafluorophosphate]
  Normal melting temperature: 198.40 ± 1.2 °C
